Legend:
[1] = test system: beta-lactamases in sonic extracts of E. aerogenes; test: Isoelectric focusing overlay: cefotaxime hydrolysis, inhibitors, induction; conditions: 0.75 μg/ml cefotaxime
K. pneumoniae 225 [2] = test: Three-dimensional test (enzymatic inactivation of antibiotics); conditions: beta-lactamase-mediated hydrolysis by K. pneumoniae 225, lawn E. coli ATCC 25922
[3] = test system: E. coli C600N transconjugants; test: Susceptibility of transconjugants; type: cell-based, Escherichia coli; conditions: E. coli C600N transconjugants of E. aerogenes 187, 200, 220, 184
K. pneumoniae = test: Agar dilution MIC, South African isolates; type: cell-based, Klebsiella pneumoniae; conditions: tzp with tazobactam 4 μg/ml
Description: The strains were provided in response to a request for all strains of Enterobacteriaceae, lacking inducible beta-lactamases, that were intermediate or resistant to cefotaxime or ceftazidime. […]

[4] = test system: beta-lactamases in sonic extracts of E. coli; test: Isoelectric focusing overlay: cefotaxime hydrolysis and inhibitors; conditions: 0.75 μg/ml cefotaxime
[5] = target: beta-lactamases in sonic extracts of E. coli (Escherichia coli, UniProt P62593); test: as above; conditions: 0.75 μg/ml cefotaxime
K. pneumoniae 225 [6] = conditions: test drug disk around amoxicillin-clavulanate disk

Chain of beta-lactamases in sonic extracts of E. coli (Escherichia coli, UniProt P62593) (P62593 24-286 limits assumed): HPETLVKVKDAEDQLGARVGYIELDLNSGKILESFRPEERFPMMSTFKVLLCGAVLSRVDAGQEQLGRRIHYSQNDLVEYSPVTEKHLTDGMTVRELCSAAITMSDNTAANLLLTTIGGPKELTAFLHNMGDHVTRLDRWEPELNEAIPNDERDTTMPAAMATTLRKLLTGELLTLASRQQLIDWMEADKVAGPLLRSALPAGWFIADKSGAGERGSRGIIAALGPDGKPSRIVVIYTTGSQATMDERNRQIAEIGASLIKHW

SMILES: CO/N=C(\C(=O)N[C@@H]1C(=O)N2C(C(=O)O)=C(COC(C)=O)CS[C@H]12)c1csc(N)n1 [cefotaxime]
- Ctx Hydrolysis ([1]; SHV-3 strain (1), Bush group 1 enzyme pI 8.3): no
- Ctx Hydrolysis ([1]; SHV-3 strain (1), Bush group 2be enzyme pI 6.9): yes
- Ctx Hydrolysis ([1]; SHV-4 strains (29), Bush group 1 enzyme pI 8.3): no
- Ctx Hydrolysis ([1]; SHV-4 strains (29), Bush group 2be enzyme pI 7.8): yes
- Ctx Hydrolysis ([1]; SHV-5 strain (1), Bush group 1 enzyme pI 8.3): no
- Ctx Hydrolysis ([1]; SHV-5 strain (1), Bush group 2Be enzyme pI 8.0): yes
- three dimensional test (K. pneumoniae 225 [2]): positive
- susceptibility after transfer of plasmids encoding SHV beta-lactamase genes [3]: decreased susceptibility
- MIC range (K. pneumoniae; resistance phenotype Kpn1, 8 strains): 0.25 to 1 µg/mL
- MIC range (K. pneumoniae; resistance phenotype Kpn2, 28 strains): 4 to 64 µg/mL
- MIC range (K. pneumoniae; resistance phenotype Kpn3 (K. pneumoniae Pit 68), 1 strain, listed as ctx): 4 µg/mL
- ctx hydrolysis ([4]; Ec1, beta-lactamase pI 5.6 (TEM-10 or 26)): Yes
- ctx hydrolysis ([4]; Ec2, beta-lactamase pI 7.6 (SHV-2 or 8)): Yes
- ctx hydrolysis ([5]; Ec1, beta-lactamase pI 5.4 (TEM-1)): No
- ctx hydrolysis ([5]; Ec2, beta-lactamase pI 5.4 (TEM-1)): No
- clavulanate double-disk potentiation test (K. pneumoniae 225 [6]): positive

Reference: US6893846B2, “Primers for use in detecting beta-lactamases” (priority 1998, dated 2005)
